Key:
Assay in all cases: Cell proliferation assay (CellTiter-Glo, intracellular ATP content)
Format in all cases: cell-based
DLD1 cells = conditions: DLD-1, 144 h; inhibition of proliferation, human colon cancer cells, 6 days incubation
From the text: (§1) The following method evaluates the inhibitory effect of the compounds of the present disclosure on the proliferation of DLD1, DLD1^BRCA2−/−, and MDA-MB-436 cells via IC50 by measuring the intracellular ATP content. The experimental method was briefly described as follows: • I. Experimental materials and instruments • 1. DLD1, human colon cancer cells (Cobioer, Nanjing, CBP60037) • 2. DLD1^BRCa2−/−, human BRCA2 gene knock-out colon cancer cells (Creative biogene, CSC-RT0015) • 3. MDA-MB-436, human breast cancer cells (ATCC, HTB-130) • 4. Fetal bovine serum (GIBCO, 10091-148) • 5. CellTite-Glo reagent (Promega, G^7573) • 6. 96-well cell culture plate (corning, 3903) • 7. Pancreatin (invitrogen, 25200-072) • 8. Microplate reader (BMG, PHERAsta) • 9. Cell counter (Countstar, Shanghai, IC1000) • II. Experimental procedures • DLD1 cells were cultured in an RPMI-1640 medium containing 10% FBS, and passaged 2-3 times a week in a passage ratio of 1:6 or 1:8. During passage, the cells were digested by pancreatin, transferred to a centrifuge tube, and centrifuged for 3 min at 1200 rpm. The supernatant was discarded, and a fresh medium was added to resuspend the cells. To a 96-well cell culture plate, 180 μL of the cell suspension was added at a density of 2.78×10^3 cells/mL. To peripheral wells of the 96-well plate, only 180 μL of complete medium was added.
(§2) The culture plate was incubated in an incubator for 24 h (37° C., 5% CO2).
(§3) The test samples were diluted to 2 mM in DMSO and serially 3-fold diluted to the 10th concentration. Blank and control wells were set. 5 μL of the serially diluted test compound solutions was added to 95 μL of fresh medium. 20 μL of the medium solution containing the compound described above was added to the plate. The plate was incubated in an incubator (37° C., 5% CO2) for 6 days. 90 μL of CellTiter-Glo reagent was added to each well of the 96-well cell culture plate. The plate was let stand for 5-10 min in the dark at room temperature. The chemiluminescence signals were read by a PHERAstar system, and the data were processed by GraphPad software.

DLD1^BRCA2−/− cells = conditions: 144 h; inhibition of proliferation, human BRCA2 gene knock-out colon cancer cells, 6 days incubation
From the text: as §1
(§4) DLD1^BRCA2−/− cells were cultured in an RPMI-1640 medium containing 10% FBS, and passaged 2-3 times a week in a passage ratio of 1:6 or 1:8. During passage, the cells were digested by pancreatin, transferred to a centrifuge tube, and centrifuged for 3 min at 1200 rpm. The supernatant was discarded, and a fresh medium was added to resuspend the cells. To a 96-well cell culture plate, 180 μL of the cell suspension was added at a density of 8.34×10^3 cells/mL. To peripheral wells of the 96-well plate, only 180 μL of complete medium was added.
as §2, §3

MDA-MB-436 cells = conditions: MDA-MB-436, 144 h; inhibition of proliferation, human breast cancer cells, 6 days incubation
From the text: as §1
as §4, with “MDA-MB-436” for “DLD1^BRCA2−/−”, “a Leibovitz's L-15” for “an RPMI-1640”, “FBS, 10 μg/mL insulin, and 16 µg/mL glutathione,” for “FBS,”, “1:3” for “1:6”, “1:5.” for “1:8.”
as §2, §3

SMILES | IC50 (DLD1 cells) | IC50 (DLD1^BRCA2−/− cells) | IC50 (MDA-MB-436 cells)
CCc1cc2ncc(CN3CCN4c5ccc(C(=O)NC)nc5COCC4C3)cc2[nH]c1=O (racemic) [Example 3, (±)-3-((7-Ethyl-6-oxo-5,6-dihydro-1,5-naphthyridin-3-yl)methyl)-N-methyl-1,2,3,4,4a,5-hexahydro-7H-pyrazino[2,1-c]pyrido[3,2-e][1,4]oxazepine-9-carboxamide] | > 250 nM | 5.8 nM | 1.1 nM
CCc1cc2ncc(CN3CCN4c5ccc(C(=O)NC)nc5N(C)CC4C3)cc2[nH]c1=O (racemic) [Example 7, (±)-3-((7-Ethyl-6-oxo-5,6-dihydro-1,5-naphthyridin-3-yl)methyl)-N,6-dimethyl-2,3,4,4a,5,6-hexahydro-1H-pyrazino[1,2-a]pyrido[2,3-e]pyrazine-8-carboxamide] | > 1000 nM | – | 18.7 nM
CCc1cc2ncc(CN3CCN4c5ccc(C(=O)NC)nc5COC[C@H]4C3)cc2[nH]c1=O [Example 8, (R)-3-((7-Ethyl-6-oxo-5,6-dihydro-1,5-naphthyridin-3-yl)methyl)-N-methyl-1,2,3,4,4a,5-hexahydro-7H-pyrazino[2,1-c]pyrido[3,2-e][1,4]oxazepine-9-carboxamide] | > 1000 nM | 7.84 nM | 1.2 nM

Next, values leading:

IC50 (DLD1 cells) | IC50 (DLD1^BRCA2−/− cells) | IC50 (MDA-MB-436 cells) | SMILES
> 1000 nM | 7.9 nM | 5.8 nM | CCc1cc2ncc(CN3CCN4c5ccc(C(=O)NC)nc5OCC4C3)cc2[nH]c1=O (racemic) [Example 1, (±)-3-((7-Ethyl-6-oxo-5,6-dihydro-1,5-naphthyridin-3-yl)methyl)-N-methyl-1,2,3,4,4a,5-hexahydropyrazino[1,2-d]pyrido[2,3-b][1,4]oxazine-8-carboxamide]
> 1000 nM | – | 41.8 nM | CCc1cc2ncc(CN3CCN4c5ccc(C(=O)NC)nc5NCC4C3)cc2[nH]c1=O (racemic) [Example 6, (±)-3-((7-Ethyl-6-oxo-5,6-dihydro-1,5-naphthyridin-3-yl)methyl)-N-methyl-2,3,4,4a,5,6-hexahydro-1H-pyrazino[1,2-a]pyrido[2,3-e]pyrazine-8-carboxamide]
> 250 nM | 2.5 nM | 1 nM | CCc1cc2ncc(CN3CCN4c5ccc(C(=O)NC)nc5OC[C@H]4C3)cc2[nH]c1=O [Example 2, (R)-3-((7-Ethyl-6-oxo-5,6-dihydro-1,5-naphthyridin-3-yl)methyl)-N-methyl-1,2,3,4,4a,5-hexahydropyrazino[1,2-d]pyrido[2,3-b][1,4]oxazine-8-carboxamide]

From US20240287094A1, “NITROGEN-CONTAINING HETEROCYCLIC COMPOUND, PREPARATION METHOD THEREFOR, AND APPLICATION THEREOF IN MEDICINES” (Jiangsu Hengrui Pharmaceuticals Co., Ltd., priority 2021, published 2024)
